Results as given in US20060166900A1, “Salt of morphine-6-glucuronide” (CeNeS Limited, priority 2002, published 2006).

How the values were obtained:
Assay type in all cases: physicochemical
[1] = Visual appearance on storage (Example 3)
Summary of the method: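 Aliquots (900 mg) kept at 2-8 °C beforehand were stored in argon-flushed brown opaque HDPE bottles at 25 °C/60% RH, 40 °C/75% RH and 60 °C. Visual appearance was assessed at set time points.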

[2] = Water content by Karl Fisher analysis on storage (Example 3)
Summary of the method: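 900 mg aliquots were held in argon-flushed brown opaque HDPE bottles at 25 °C/60% RH, 40 °C/75% RH and 60 °C. At each time point, water content (% w/w) was determined in duplicate on about 100 mg of equilibrated material by Karl Fischer titration.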

[3] = Stability of M6G salts at room temperature over 6 years, HPLC; details: for Assay M6G corr.: content calculated as M6G derivative
[4] = Colour of solution by visible spectrophotometry on storage (Example 3); details: 5% w/v solution in water
Summary of the method: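 5% w/v aqueous solution, absorbance at 420 nm in a 1 cm silica cell. Samples were stored in argon-flushed brown opaque HDPE bottles at 25° C./60% RH, 40° C./75% RH and 60° C.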

[5] = Stability indicating HPLC assay and related substances on storage (Example 3)
[6] = almost 6 years at room temperature

In the case of `CN1CCC23c4c5ccc(O)c4OC2C(OC2OC(C(=O)O)C(O)C(O)C2O)C=CC3C1C5.CN1CCC23c4c5ccc(O)c4OC2C(OC2OC(C(=O)O)C(O)C(O)C2O)C=CC3C1C5.O=S(=O)(O)O` (centres unmarked) [Morphine-6-glucuronide sulphate], the Appearance ([1]; 1 month, 25° C./60% RH) was “White crystalline powder”, the Appearance ([1]; 1 month, 40° C./75% RH) was “Slightly yellow crystalline powder” and the Appearance ([1]; 1 month, 60° C.) was “Pale yellow crystalline powder”. For the same molecule, the Appearance ([1]; 3 months, 25° C./60% RH) was “Pale yellow crystalline powder”, the Appearance ([1]; 3 months, 40° C./75% RH) was “Slightly yellow crystalline powder” and the Appearance ([1]; Initial) was “White crystalline powder”. For the same molecule, the Moisture ([2]; 1 month, 25° C./60% RH) was 4.28 % w/w, the Moisture ([2]; 1 month, 40° C./75% RH) was 5.93 % w/w and the Moisture ([2]; 1 month, 60° C.) was 4.68 % w/w. It also gave a Moisture ([2]; 3 months, 25° C./60% RH) of 5.54 % w/w, a Moisture ([2]; 3 months, 40° C./75% RH) of 8.31 % w/w and a Moisture ([2]; Initial) of 3.77 % w/w. The HN-33177 ([3]; 0 years) was 0.2%, the HN-75083 ([3]; 0 years) was under 0.1% and the “Unknown related substances (sum area %)” value ([3]; 0 years) was 0.2 area %. The “Assay M6G corr.” value ([3]; 0 years) was 93.6%, the HN-33177 ([3]; 6 years at ambient temperature) was 0.3% and the HN-67002 ([3]; 6 years at ambient temperature) was 1.1%. For the same molecule, the HN-67003 ([3]; 6 years at ambient temperature) was 1.8%, the Morphine ([3]; 6 years at ambient temperature) was 0.2% and the “Unknown related substances (sum area %)” value ([3]; 6 years at ambient temperature) was 10.7 area %. For the same molecule, the “Assay M6G corr.” value ([3]; 6 years at ambient temperature) was 76.8%, the HN-33177 ([3]; 6 years at ambient temperature, listed as M6G2.H2SO4) was “did not change” and the largest unidentified peak [3, 6] was 6.55 area %. For the same molecule, the “peaks present in the chromatogram that cannot be identified by retention time” value [3, 6] was 13, the Colour ([4]; 1 month, 25° C./60% RH) was 0.244 Abs@420 nm and the Colour ([4]; 1 month, 40° C./75% RH) was 0.430 Abs@420 nm. It also gave a Colour ([4]; 1 month, 60° C.) of 1.714 Abs@420 nm, a Colour ([4]; 3 months, 25° C./60% RH) of 0.406 Abs@420 nm and a Colour ([4]; 3 months, 40° C./75% RH) of 1.056 Abs@420 nm. The Colour ([4]; Initial) was 0.136 Abs@420 nm, the “Known Related Substances HN33177” value ([5]; 1 month, 25° C./60% RH) was 0.63% and the “Known Related Substances HN67003” value ([5]; 1 month, 25° C./60% RH) was 0.69%. The “Known Related Substances HN75083” value ([5]; 1 month, 25° C./60% RH) was 0.27%, the “M6G Assay, Anhydrous basis” value ([5]; 1 month, 25° C./60% RH) was 81.82 % w/w and the “M6G Assay, As is basis” value ([5]; 1 month, 25° C./60% RH) was 73.58 % w/w. For the same molecule, the “M6G Assay, Corrected for the salt form” value ([5]; 1 month, 25° C./60% RH) was 90.51 % w/w, the “Total Known” value ([5]; 1 month, 25° C./60% RH) was 1.59% and the “Total Related Substances” value ([5]; 1 month, 25° C./60% RH) was 4.29%. The “Total Unknown” value ([5]; 1 month, 25° C./60% RH) was 2.70%, the “Known Related Substances HN33177” value ([5]; 1 month, 40° C./75% RH) was 0.50% and the “Known Related Substances HN67003” value ([5]; 1 month, 40° C./75% RH) was 1.58%. For the same molecule, the “Known Related Substances HN75076” value ([5]; 1 month, 40° C./75% RH) was 0.06%, the “Known Related Substances HN75083” value ([5]; 1 month, 40° C./75% RH) was 0.74% and the “Known Related Substances Morphine” value ([5]; 1 month, 40° C./75% RH) was 0.21%. The “M6G Assay, Anhydrous basis” value ([5]; 1 month, 40° C./75% RH) was 73.67 % w/w, the “M6G Assay, As is basis” value ([5]; 1 month, 40° C./75% RH) was 65.04 % w/w and the “M6G Assay, Corrected for the salt form” value ([5]; 1 month, 40° C./75% RH) was 81.50 % w/w. For the same molecule, the “Total Known” value ([5]; 1 month, 40° C./75% RH) was 3.09%, the “Total Related Substances” value ([5]; 1 month, 40° C./75% RH) was 9.78% and the “Total Unknown” value ([5]; 1 month, 40° C./75% RH) was 6.69%. The “Known Related Substances HN33177” value ([5]; 1 month, 60° C.) was 0.23%, the “Known Related Substances HN67003” value ([5]; 1 month, 60° C.) was 2.73% and the “Known Related Substances HN75076” value ([5]; 1 month, 60° C.) was 0.26%. The “Known Related Substances HN75083” value ([5]; 1 month, 60° C.) was 0.61%, the “Known Related Substances Morphine” value ([5]; 1 month, 60° C.) was 0.72% and the “M6G Assay, Anhydrous basis” value ([5]; 1 month, 60° C.) was 63.84 % w/w. For the same molecule, the “M6G Assay, As is basis” value ([5]; 1 month, 60° C.) was 57.15 % w/w, the “M6G Assay, Corrected for the salt form” value ([5]; 1 month, 60° C.) was 70.62 % w/w and the “Total Known” value ([5]; 1 month, 60° C.) was 4.55%. The “Total Related Substances” value ([5]; 1 month, 60° C.) was 18.25%, the “Total Unknown” value ([5]; 1 month, 60° C.) was 13.70% and the “Known Related Substances HN33177” value ([5]; 3 months, 25° C./60% RH) was 0.52%. For the same molecule, the “Known Related Substances HN67003” value ([5]; 3 months, 25° C./60% RH) was 1.36%, the “Known Related Substances HN75083” value ([5]; 3 months, 25° C./60% RH) was 0.53% and the “Known Related Substances Morphine” value ([5]; 3 months, 25° C./60% RH) was 0.17%. The “M6G Assay, Anhydrous basis” value ([5]; 3 months, 25° C./60% RH) was 77.05 % w/w, the “M6G Assay, As is basis” value ([5]; 3 months, 25° C./60% RH) was 69.08 % w/w and the “M6G Assay, Corrected for the salt form” value ([5]; 3 months, 25° C./60% RH) was 85.24 % w/w. For the same molecule, the “Total Known” value ([5]; 3 months, 25° C./60% RH) was 2.58%, the “Total Related Substances” value ([5]; 3 months, 25° C./60% RH) was 9.16% and the “Total Unknown” value ([5]; 3 months, 25° C./60% RH) was 6.58%. For the same molecule, the “Known Related Substances HN33177” value ([5]; 3 months, 40° C./75% RH) was 0.23%, the “Known Related Substances HN67003” value ([5]; 3 months, 40° C./75% RH) was 1.72% and the “Known Related Substances HN75076” value ([5]; 3 months, 40° C./75% RH) was 0.04%. The “Known Related Substances HN75083” value ([5]; 3 months, 40° C./75% RH) was 0.58%, the “Known Related Substances Morphine” value ([5]; 3 months, 40° C./75% RH) was 0.37% and the “M6G Assay, Anhydrous basis” value ([5]; 3 months, 40° C./75% RH) was 68.38 % w/w. For the same molecule, the “M6G Assay, As is basis” value ([5]; 3 months, 40° C./75% RH) was 59.39 % w/w, the “M6G Assay, Corrected for the salt form” value ([5]; 3 months, 40° C./75% RH) was 75.64 % w/w and the “Total Known” value ([5]; 3 months, 40° C./75% RH) was 2.75%. For the same molecule, the “Total Related Substances” value ([5]; 3 months, 40° C./75% RH) was 17.98%, the “Total Unknown” value ([5]; 3 months, 40° C./75% RH) was 15.23% and the stability assessment ([5]; 25° C./60% RH, three months) was “least stable”. The “Known Related Substances HN33177” value ([5]; Initial) was 0.69%, the “Known Related Substances HN67003” value ([5]; Initial) was 0.15% and the “Known Related Substances HN75076” value ([5]; Initial) was 0.01%. For the same molecule, the “Known Related Substances HN75083” value ([5]; Initial) was 0.23%, the “M6G Assay, Anhydrous basis” value ([5]; Initial) was 88.49 % w/w and the “M6G Assay, As is basis” value ([5]; Initial) was 80.62 % w/w. For the same molecule, the “M6G Assay, Corrected for the salt form” value ([5]; Initial) was 97.87 % w/w, the “Total Known” value ([5]; Initial) was 1.08% and the “Total Related Substances” value ([5]; Initial) was 1.72%. For the same molecule, the “Total Unknown” value ([5]; Initial) was 0.64% and the overall stability comparison ([5]; overall review of Example 3 data) was “least stable”.
